These results are taken from paper PMC4197230, “Terpene synthases and their contribution to herbivore-induced volatile emission in western balsam poplar (Populus trichocarpa)” (BMC Plant Biology, 2014).

Format in all cases: biochemical
Test [1] concerns the target T1, PtTPS12 (Populus trichocarpa, UniProt A0A076GAU9).
T1 construct: gene TPS12; N-terminally truncated (first 126 nt deleted, predicted plastid transit peptide), pASK-IBA7, E. coli TOP10, desalted bacterial extract
As to the kind of experiment: SPME GC-MS product analysis, bacterial extract. To be noted: 10 mM MgCl2, pH 7.0, 30 C, desalted E. coli extract, empty-vector control.

Test [2] deals with T2, PtTPS14 (Populus trichocarpa, UniProt A0A076GBU1).
T2 construct: gene TPS14; full ORF in pASK-IBA7 (vector tag, if any, not described), E. coli TOP10, desalted bacterial extract
T2 sequence (A0A076GBU1 1-560): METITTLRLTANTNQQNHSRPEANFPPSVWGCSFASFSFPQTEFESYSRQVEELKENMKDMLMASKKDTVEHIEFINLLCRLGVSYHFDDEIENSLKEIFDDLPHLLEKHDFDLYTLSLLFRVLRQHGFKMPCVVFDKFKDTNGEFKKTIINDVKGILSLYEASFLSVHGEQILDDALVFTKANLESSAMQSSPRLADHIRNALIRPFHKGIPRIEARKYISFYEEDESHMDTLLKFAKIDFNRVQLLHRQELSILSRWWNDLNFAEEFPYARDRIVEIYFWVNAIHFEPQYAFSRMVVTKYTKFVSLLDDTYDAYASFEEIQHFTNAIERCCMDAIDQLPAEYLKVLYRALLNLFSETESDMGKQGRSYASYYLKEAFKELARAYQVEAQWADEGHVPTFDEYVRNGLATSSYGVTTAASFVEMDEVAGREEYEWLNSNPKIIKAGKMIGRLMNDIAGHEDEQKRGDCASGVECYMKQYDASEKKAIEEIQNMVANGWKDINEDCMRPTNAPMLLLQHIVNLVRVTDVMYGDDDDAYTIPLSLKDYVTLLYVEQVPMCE
Briefly: SPME GC-MS product analysis, bacterial extract. To be noted: 10 uM FPP, 10 mM MgCl2, pH 7.0, 30 C; desalted E. coli extract, empty-vector control; marginal activity.

Test [3] deals with T3, PtTPS15 (Populus trichocarpa, UniProt A0A076GBT1).
T3 construct: gene TPS15; full ORF in pASK-IBA7 (vector tag, if any, not described), E. coli TOP10, desalted bacterial extract
T3 sequence (A0A076GBT1 1-528): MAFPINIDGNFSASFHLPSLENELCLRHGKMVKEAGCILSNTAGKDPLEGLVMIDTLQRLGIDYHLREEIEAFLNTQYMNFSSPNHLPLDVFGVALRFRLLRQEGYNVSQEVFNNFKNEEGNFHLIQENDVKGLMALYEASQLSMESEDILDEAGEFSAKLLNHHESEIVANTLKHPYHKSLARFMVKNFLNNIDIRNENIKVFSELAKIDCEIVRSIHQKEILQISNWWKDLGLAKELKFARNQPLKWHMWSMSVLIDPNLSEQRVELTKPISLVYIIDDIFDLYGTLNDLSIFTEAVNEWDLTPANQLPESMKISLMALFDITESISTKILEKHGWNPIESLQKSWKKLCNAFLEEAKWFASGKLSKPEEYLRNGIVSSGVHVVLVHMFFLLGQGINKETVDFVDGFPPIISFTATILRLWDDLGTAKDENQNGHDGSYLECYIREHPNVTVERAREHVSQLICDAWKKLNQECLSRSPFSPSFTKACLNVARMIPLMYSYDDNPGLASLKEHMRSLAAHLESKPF
Briefly: SPME GC-MS product analysis, bacterial extract. To be noted: 10 mM MgCl2, pH 7.0, 30 C, desalted E. coli extract, empty-vector control.

Test [4] has as its target T4, PtTPS9 (Populus trichocarpa, UniProt A0A076GBT5).
T4 construct: gene TPS9; full ORF in pASK-IBA7 (vector tag, if any, not described), E. coli TOP10, desalted bacterial extract
T4 sequence (A0A076GBT5 1-569): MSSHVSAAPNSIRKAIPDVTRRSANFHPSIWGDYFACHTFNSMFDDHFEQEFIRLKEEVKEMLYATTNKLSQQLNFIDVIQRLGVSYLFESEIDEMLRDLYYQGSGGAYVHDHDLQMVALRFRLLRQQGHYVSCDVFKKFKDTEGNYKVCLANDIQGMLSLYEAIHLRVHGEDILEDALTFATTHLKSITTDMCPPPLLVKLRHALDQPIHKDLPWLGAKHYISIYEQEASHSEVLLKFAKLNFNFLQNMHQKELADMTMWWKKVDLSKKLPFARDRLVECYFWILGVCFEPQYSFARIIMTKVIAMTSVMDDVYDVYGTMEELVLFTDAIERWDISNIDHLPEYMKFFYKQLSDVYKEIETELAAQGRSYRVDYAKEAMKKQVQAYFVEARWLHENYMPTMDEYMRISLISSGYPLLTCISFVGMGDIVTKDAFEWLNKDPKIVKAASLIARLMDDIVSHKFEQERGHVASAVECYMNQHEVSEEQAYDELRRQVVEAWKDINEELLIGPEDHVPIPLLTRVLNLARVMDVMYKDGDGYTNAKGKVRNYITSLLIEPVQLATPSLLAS
Briefly: SPME GC-MS product analysis, bacterial extract. To be noted: 10 uM FPP, 10 mM MgCl2, pH 7.0, 30 C; desalted E. coli extract, empty-vector control.

Test [5] concerns the target T5, PtTPS10 (Populus trichocarpa, UniProt A0A076GH23).
T5 construct: gene TPS10; full ORF in pASK-IBA7 (vector tag, if any, not described), E. coli TOP10, desalted bacterial extract
T5 sequence (A0A076GH23 1-836): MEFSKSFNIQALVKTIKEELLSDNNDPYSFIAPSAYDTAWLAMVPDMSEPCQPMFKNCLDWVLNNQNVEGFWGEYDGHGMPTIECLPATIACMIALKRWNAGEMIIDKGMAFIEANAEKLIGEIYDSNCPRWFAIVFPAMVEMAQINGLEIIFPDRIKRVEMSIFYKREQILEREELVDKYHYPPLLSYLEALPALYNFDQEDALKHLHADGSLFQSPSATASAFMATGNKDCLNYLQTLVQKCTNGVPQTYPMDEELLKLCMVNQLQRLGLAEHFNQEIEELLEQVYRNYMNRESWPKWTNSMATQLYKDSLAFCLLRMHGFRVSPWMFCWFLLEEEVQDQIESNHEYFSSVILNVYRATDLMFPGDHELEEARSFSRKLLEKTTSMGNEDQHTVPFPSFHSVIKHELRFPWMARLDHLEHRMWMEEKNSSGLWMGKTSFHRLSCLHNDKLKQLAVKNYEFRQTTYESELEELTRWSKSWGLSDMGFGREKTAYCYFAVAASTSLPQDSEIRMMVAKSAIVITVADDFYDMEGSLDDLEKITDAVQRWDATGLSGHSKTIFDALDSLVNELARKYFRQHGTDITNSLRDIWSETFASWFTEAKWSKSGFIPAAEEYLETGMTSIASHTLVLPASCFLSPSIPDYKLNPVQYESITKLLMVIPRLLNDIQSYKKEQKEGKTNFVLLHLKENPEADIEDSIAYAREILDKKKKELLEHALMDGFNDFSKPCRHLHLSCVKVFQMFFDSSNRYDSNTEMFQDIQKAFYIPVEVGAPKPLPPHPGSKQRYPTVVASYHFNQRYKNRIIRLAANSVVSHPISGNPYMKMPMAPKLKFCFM
Briefly: hexane overlay GC-MS product analysis, bacterial extract. To be noted: 50 uM GGPP, 10 mM MgCl2, pH 7.0, 30 C, 60 min; desalted E. coli extract, empty-vector control.

Test [6] deals with T6, PtTPS11 (Populus trichocarpa, UniProt A0A076GAR6).
T6 construct: gene TPS11; full ORF in pASK-IBA7 (vector tag, if any, not described), E. coli TOP10, desalted bacterial extract
T6 sequence (A0A076GAR6 1-551): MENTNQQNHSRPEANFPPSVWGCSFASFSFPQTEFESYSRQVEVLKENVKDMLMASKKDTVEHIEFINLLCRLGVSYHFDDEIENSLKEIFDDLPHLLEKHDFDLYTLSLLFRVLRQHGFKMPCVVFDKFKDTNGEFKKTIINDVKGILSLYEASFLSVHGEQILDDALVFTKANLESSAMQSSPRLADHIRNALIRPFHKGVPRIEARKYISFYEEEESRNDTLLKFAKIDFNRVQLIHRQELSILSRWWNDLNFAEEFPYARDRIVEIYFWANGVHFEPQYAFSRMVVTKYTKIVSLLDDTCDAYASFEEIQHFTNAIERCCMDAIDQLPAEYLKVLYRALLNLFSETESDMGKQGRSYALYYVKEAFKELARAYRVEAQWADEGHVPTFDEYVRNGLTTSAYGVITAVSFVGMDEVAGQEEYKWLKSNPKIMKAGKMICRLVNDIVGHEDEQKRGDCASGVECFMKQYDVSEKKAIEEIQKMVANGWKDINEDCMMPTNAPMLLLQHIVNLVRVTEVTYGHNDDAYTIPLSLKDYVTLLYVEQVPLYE
Briefly: SPME GC-MS product analysis, bacterial extract. To be noted: 10 uM GPP, 10 mM MgCl2, pH 7.0, 30 C; desalted E. coli extract, empty-vector control.

Test [7] concerns the target T7, PtTPS6 (Populus trichocarpa, UniProt A0A076GAR5).
T7 construct: gene TPS6; N-terminally truncated (first 57 nt deleted, predicted plastid transit peptide), pASK-IBA7, E. coli TOP10, desalted bacterial extract
As to the kind of experiment: SPME GC-MS product analysis, bacterial extract. To be noted: 10 uM GPP, 10 mM MgCl2, pH 7.0, 30 C; desalted E. coli extract, empty-vector control.

T1 sequence (A0A076GAU9 entry or part of it): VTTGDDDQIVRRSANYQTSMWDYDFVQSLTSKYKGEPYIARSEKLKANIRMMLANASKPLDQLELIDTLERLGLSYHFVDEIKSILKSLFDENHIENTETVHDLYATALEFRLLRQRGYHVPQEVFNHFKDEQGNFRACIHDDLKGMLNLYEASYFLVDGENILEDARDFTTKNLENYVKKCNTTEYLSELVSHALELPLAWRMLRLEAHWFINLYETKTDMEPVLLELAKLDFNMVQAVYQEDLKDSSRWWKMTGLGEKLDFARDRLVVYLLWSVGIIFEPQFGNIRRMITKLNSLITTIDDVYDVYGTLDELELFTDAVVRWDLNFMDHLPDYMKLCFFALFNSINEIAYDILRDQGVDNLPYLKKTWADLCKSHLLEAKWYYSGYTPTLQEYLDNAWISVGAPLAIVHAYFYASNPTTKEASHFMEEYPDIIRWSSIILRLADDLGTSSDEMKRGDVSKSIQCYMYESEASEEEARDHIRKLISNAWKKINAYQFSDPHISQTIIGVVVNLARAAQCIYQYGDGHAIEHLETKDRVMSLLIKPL
T7 sequence (A0A076GAR5 entry or part of it): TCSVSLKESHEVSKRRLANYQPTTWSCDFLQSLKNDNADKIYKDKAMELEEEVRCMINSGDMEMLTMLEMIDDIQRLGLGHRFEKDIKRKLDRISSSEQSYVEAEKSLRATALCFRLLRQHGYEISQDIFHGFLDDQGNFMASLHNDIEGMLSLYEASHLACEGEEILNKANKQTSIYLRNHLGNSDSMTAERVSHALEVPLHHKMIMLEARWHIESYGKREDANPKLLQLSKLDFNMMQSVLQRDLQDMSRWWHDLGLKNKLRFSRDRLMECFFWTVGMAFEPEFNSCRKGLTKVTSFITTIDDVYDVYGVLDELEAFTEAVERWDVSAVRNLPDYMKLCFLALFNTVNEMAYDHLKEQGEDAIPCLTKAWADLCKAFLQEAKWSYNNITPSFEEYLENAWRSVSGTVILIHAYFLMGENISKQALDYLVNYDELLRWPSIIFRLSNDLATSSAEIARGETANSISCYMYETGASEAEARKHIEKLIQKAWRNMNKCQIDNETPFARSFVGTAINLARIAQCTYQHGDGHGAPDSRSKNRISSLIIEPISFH

Take `CC(C)=CCC/C(C)=C/CC/C(C)=C/COP(=O)(O)OP(=O)(O)O` [FPP]: the “SPME GC-MS product analysis, bacterial extract” value was “PtTPS12 showed a broad sesquiterpene product spectrum” in test [1] (10 uM FPP); “PtTPS14 showed only marginal activity with FPP and produced trace amounts of germacrene D” in test [2]; “PtTPS15 was able to convert FPP to nerolidol” in test [3] (10 uM FPP); “PtTPS9 produced (E)-β-caryophyllene and smaller amounts of α-humulene” in test [4].

As to `CC(C)=CCC/C(C)=C/CC/C(C)=C/CC/C(C)=C/COP(=O)(O)OP(=O)(O)O` [GGPP], in test [5], the “hexane overlay GC-MS product analysis, bacterial extract” value was “PtTPS10 represented a DTS and was able to convert GGPP into geranyllinalool”.

For `CC(C)=CCC/C(C)=C/COP(=O)(O)OP(=O)(O)O` [GPP], the “SPME GC-MS product analysis, bacterial extract” value in test [1] (10 uM GPP) is “PtTPS12 which formed linalool and trace amounts of β-phellandrene”; in test [6], “When offered GPP as a substrate, PtTPS11 formed several monoterpenes”; in test [7], “(PtTPS6, PtTPS12, PtTPS13 and PtTPS15) accepted GPP as substrate and produced monoterpenes”; in test [3] (10 uM GPP), “PtTPS15, which produced only linalool”.
